Measurements published in ChEMBL document CHEMBL3593175, “Bicyclic [3.3.0]-Octahydrocyclopenta[c]pyrrolo Antagonists of Retinol Binding Protein 4: Potential Treatment of Atrophic Age-Related Macular Degeneration and Stargardt Disease” (J Med Chem, 2015).

Experiments:
[1] = target: T1, Retinol-binding protein 4 (Homo sapiens, UniProt P02753); assay: Displacement of [3H]-retinol from RBP4 (unknown origin) by scintillation proximity assay
[2] = target: T1, Retinol-binding protein 4; assay: Inhibition of retinol-induced interaction of bacterially expressed MBP-tagged RBP4 (unknown origin) with Eu3+ cryptate labeled TTR by HTRF assay

Row | Compound | IC50 [1] | IC50 [2]
1 | O=C(O)c1ccnc(N2C[C@H]3C[C@@H](c4ccccc4C(F)(F)F)C[C@H]3C2)n1 | 20.8 nM | –
2 | COc1cc(C(=O)O)nc(N2C[C@H]3C[C@@H](c4ccccc4C(F)(F)F)C[C@H]3C2)n1 | 12.8 nM | 81.2 nM
3 | CC(C)c1cc(C(=O)O)nc(N2C[C@H]3C[C@@H](c4ccccc4C(F)(F)F)C[C@H]3C2)n1 | 153 nM | –
4 | Cc1nc(N2C[C@H]3C[C@@H](c4ccccc4C(F)(F)F)C[C@H]3C2)ncc1C(=O)O | 40.8 nM | 523 nM
